Experimental findings from PubChem BioAssay (NCI) are described below.

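All cell lines were grown in 96-well plates and treated with compound for 48 hours. GI50 is the concentration that inhibits growth by half. TGI: total growth inhibition.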 Some results are limits rather than exact numbers.

Test in all cases: NCI tumour cell line growth inhibition, 48 h
In assay [1] the test system is A498 renal.
For assay [2], the system named is HCT-15 colon.
The subject of assay [3] is HS 578T breast.
The test system of assay [4] is IGROV1 ovarian.
In assay [5] the test system is MDA-MB-231 breast.
Assay [6] concerns RPMI-8226 leukemia.
Assay [7] concerns SF-295 CNS.
Assay [8] concerns SK-MEL-2 melanoma.

Consider `Cc1cc(C)nc(SC2=C(Nc3cccc(Cl)c3C)C(=O)N(Cc3ccccc3)C2=O)n1`, for which the GI50 in assay [1], in assay [2], in assay [3], in assay [4], in assay [5] and in assay [6] was > 160 µM each time. Further, the GI50 in assay [7] and in assay [8] was > 160 µM each time. Further, the TGI in assay [1], in assay [2], in assay [3], in assay [4], in assay [5] and in assay [6] was > 160 µM in each case. Moreover, the TGI in assay [7] and in assay [8] was > 160 µM in each case.
In the case of `CCCCn1sc(=O)n(Cc2ccc(CNC(=O)OCc3ccc4c(Br)cc(Br)c(O)c4n3)cc2)c1=O`, the GI50 in assay [1] was 0.105 µM; in assay [2], 0.468 µM; in assay [3] it was 0.959 µM; in assay [4], 0.531 µM; in assay [5], 0.475 µM; in assay [6] it was 0.501 µM. In addition, the results for the GI50 in assay [7] and in assay [8] were 4.09 µM and 1.28 µM, respectively. Moreover, the TGI in assay [1] was 0.602 µM; in assay [2], > 100 µM; in assay [3] it was > 100 µM; in assay [4], > 100 µM; in assay [5] it was > 51.1 µM; in assay [6] it was > 100 µM. The TGI in assay [7] is > 24.5 µM; in assay [8], > 100 µM.
Turning to `Cc1nc2n(c(=O)c1CCN1CCC(c3noc4cc(F)ccc34)CC1)CCCC2`, the GI50 in assay [1], in assay [2], in assay [3], in assay [4], in assay [5] and in assay [6] was > 50 µM in each case. In addition, the GI50 in assay [7] and in assay [8] was > 50 µM each time. Moreover, the TGI in assay [1], in assay [2], in assay [3], in assay [4], in assay [5] and in assay [6] was > 50 µM in each case. The TGI in assay [7] and in assay [8] was > 50 µM each time.
On to `C#CCOc1cccc(Nc2ncnc3ccc(NC(=O)CCl)cc23)c1`, for which the GI50 in assay [1] was 4.6 µM; in assay [2], 0.0709 µM; in assay [3], 4.12 µM; in assay [4], 0.164 µM; in assay [5] it was 1.07 µM; in assay [6], 1.22 µM. Moreover, the GI50 in assay [7] is 2.29 µM; in assay [8] it was 4.07 µM. The TGI in assay [1] is 21.4 µM; in assay [2] it was 15.1 µM; in assay [3], > 100 µM; in assay [4], 2.77 µM; in assay [5] it was 30.8 µM; in assay [6], 13.6 µM. In addition, the results for the TGI in assay [7] and in assay [8] were 19.8 µM and 24.1 µM, respectively.
Turning to `C=C1C(=O)O[C@H]2[C@H]1CC/C(COC(=O)c1ccc(C#N)cc1)=C\CC[C@@]1(C)O[C@@H]21`, the GI50 is 15.4 µM in assay [1]; 1.44 µM in assay [2]; 3.04 µM in assay [3]; 1.38 µM in assay [4]; 2.2 µM in assay [5]; 1.5 µM in assay [6]. For the same molecule, the GI50 in assay [7] was 8.16 µM; in assay [8] it was 1.98 µM. Also, the TGI in assay [1] is 30 µM; in assay [2] it was 3.22 µM; in assay [3], 15.9 µM; in assay [4], 4.27 µM; in assay [5] it was 5.24 µM; in assay [6], 4.61 µM. Further, the TGI worked out at 20.7 µM in assay [7] and 4.54 µM in assay [8].
For `C=C(C)[C@@H]1CC[C@]2(COC3CCCCO3)CC[C@]3(C)[C@H](CC[C@@H]4[C@@]5(C)C=C(C=O)C(=O)C(C)(C)[C@@H]5CC[C@]43C)[C@@H]12` (some centres undefined), the GI50 in assay [1] was 0.368 µM; in assay [2], 1.77 µM; in assay [3], 1.39 µM; in assay [4] it was 2.13 µM; in assay [5], 1.81 µM; in assay [6] it was 1.59 µM. Also, the GI50 in assay [7] was 1.5 µM; in assay [8], 1.56 µM. Besides, the TGI in assay [1] turned out to be 1.98 µM; in assay [2], 3.97 µM; in assay [3], 3.77 µM; in assay [4], 4.56 µM; in assay [5] it was 3.82 µM; in assay [6] it was 8.3 µM. Further, the TGI was 2.96 µM in assay [7] and 3.26 µM in assay [8].
Regarding `CCN1C(=O)N(c2ccccc2)C2NN=c3s/c(=C4\C(=O)N(C(C)C)c5ccccc54)c(=O)n3C21` (centres undefined), the GI50 in assay [1] was 0.367 µM; in assay [2], 0.733 µM; in assay [3], 1.06 µM; in assay [4] it was 1.55 µM; in assay [5], 2.51 µM; in assay [6] it was 2.92 µM. The GI50 in assay [7] was 0.737 µM; in assay [8], 5.99 µM. In addition, the TGI was 1.64 µM in assay [1]; > 56.6 µM in assay [2]; 21.8 µM in assay [3]; > 100 µM in assay [4]; 11.6 µM in assay [5]; 18 µM in assay [6]. Further, the results for the TGI in assay [7] and in assay [8] were 4.76 µM and > 100 µM, respectively.
For `Cc1ccc(S(=O)(=O)Cc2nc(-c3ccc(C(=O)NCc4cccnc4)cc3)oc2C)cc1`, the GI50 was > 100 µM in assay [1]; 0.0524 µM in assay [2]; 7.9 µM in assay [3]; 0.189 µM in assay [4]; 5.78 µM in assay [5]; 0.0673 µM in assay [6]. In addition, the GI50 in assay [7] was 9.34 µM; in assay [8], 5.45 µM. Besides, the TGI in assay [1], in assay [2], in assay [3], in assay [4], in assay [5] and in assay [6] was > 100 µM each time. Further, the TGI in assay [7] is > 100 µM; in assay [8] it was > 86.3 µM.
In the case of `CS(=O)(=O)CCNCc1ccc(-c2ccc3ncnc(Nc4ccc(OCc5ccccc5)c(Cl)c4)c3c2)o1`, the GI50 is 1.56 µM in assay [1]; 3.55 µM in assay [2]; 3.55 µM in assay [3]; 2.8 µM in assay [4]; 4.3 µM in assay [5]; 5.49 µM in assay [6]. Besides, the results for the GI50 in assay [7] and in assay [8] were 4.94 µM and 4.62 µM, respectively. Besides, the TGI was 9.33 µM in assay [1]; 10 µM in assay [2]; 12.7 µM in assay [3]; > 21.4 µM in assay [4]; 9.31 µM in assay [5]; 13.7 µM in assay [6]. For the same molecule, the TGI in assay [7] came out at 12.1 µM; in assay [8], 9.71 µM.
